Here are results for 1 compound from US7745492B2, “Carboxamido opioid compounds” (Janssen Pharmaceutical, priority 2004, dated 2010).

The target in data set [1] is recombinant human P450 2C9 (Homo sapiens, UniProt P11712). As to the kind of experiment: Recombinant human P450 isoform inhibition, 2C9. The class given is in vitro ADME. Here is the method:
(§1) In a study using recombinant human P450 isoforms, the compound was only a weak inhibitor (IC50>10 μM) of all isoforms tested, 3A4, 2D6, 2C9, 2C19, and 1A2.

Data set [2] addresses recombinant human P450 2D6 (Homo sapiens, UniProt P10635). As to the kind of experiment: Recombinant human P450 isoform inhibition, 2D6. The class given is in vitro ADME. Here is the method: as §1
Data set [3] is described as follows: Metabolic stability in dog liver microsomes. Type of data set: in vitro ADME. Particulars: 10 min incubation. Here is the method:
(§2) The metabolic stability of Compound 3 was investigated using several approaches. The compound was incubated with liver microsomes from mouse, rat, dog and human and the percent of compound remaining after ten min quantified. The compound was metabolically robust in all species tested.

Data set [4] deals with recombinant human P450 2C19 (Homo sapiens, UniProt P33261). The data set is described as follows: Recombinant human P450 isoform inhibition, 2C19. Type of data set: in vitro ADME. Here is the method:
as §1

In data set [5] the target is T1, mu opioid receptor (Rattus norvegicus, UniProt P33535).
T1 construct: from tissue; host or cells: rat forebrain membrane (particulate) preparation
As to the kind of experiment: Rat brain mu opioid receptor binding assay ([3H]DAMGO). Particulars: rat forebrain membranes, 25° C. Here is the method:
Rat Brain Mu and Delta Opioid Receptor Binding Assay
Male, Wistar rats (150-250 g, VAF, Charles River, Kingston, N.Y.) were killed by cervical dislocation and their brains removed and placed immediately in ice cold Tris HCl buffer (50 mM, pH 7.4). The forebrains were separated from the remainder of the brain by a coronal transection, beginning dorsally at the colliculi and passing ventrally through the midbrain-pontine junction. After dissection, the forebrains were homogenized in Tris buffer in a Teflon®-glass homogenizer. The homogenate was diluted to a concentration of 1 g of forebrain tissue per 100 mL Tris buffer and centrifuged at 39,000×G for 10 min. The pellet was resuspended in the same volume of Tris buffer with several brief pulses from a Polytron homogenizer. This particulate preparation was used for the opioid receptor binding assays. Following incubation with the mu opioid selective peptide ligand [^3H]DAMGO or the delta opioid selective ligand [^3H]DPDPE at 25° C., the tube contents were filtered through Whatman GF/B filter sheets on a Brandel cell harvester. The tubes and filters were rinsed three times with 4 mL of 10 mM HEPES (pH 7.4) and the radioactivity associated with the filter circles determined using Formula 989 scintillation fluid (New England Nuclear, Boston, Mass.) in a scintillation counter.
The data were used to calculate a Ki value, using GraphPad Prism.

The nature of data set [6]: Metabolic stability in human liver microsomes. The class given is in vitro ADME. How it is done:
as §2
In a follow up study in human liver microsomes, the percent of compound remaining was determined at several incubation times (30, 60 and 90 min). The in vitro half life of the compound was determined to be >100 minutes.
Background: Microsomes from liver hold many membrane-bound enzymes, among them those of drug oxidation.

The target of data set [7] is T2, recombinant human P450 1A2 (Homo sapiens, UniProt P05177).
T2 sequence (P05177 1-516): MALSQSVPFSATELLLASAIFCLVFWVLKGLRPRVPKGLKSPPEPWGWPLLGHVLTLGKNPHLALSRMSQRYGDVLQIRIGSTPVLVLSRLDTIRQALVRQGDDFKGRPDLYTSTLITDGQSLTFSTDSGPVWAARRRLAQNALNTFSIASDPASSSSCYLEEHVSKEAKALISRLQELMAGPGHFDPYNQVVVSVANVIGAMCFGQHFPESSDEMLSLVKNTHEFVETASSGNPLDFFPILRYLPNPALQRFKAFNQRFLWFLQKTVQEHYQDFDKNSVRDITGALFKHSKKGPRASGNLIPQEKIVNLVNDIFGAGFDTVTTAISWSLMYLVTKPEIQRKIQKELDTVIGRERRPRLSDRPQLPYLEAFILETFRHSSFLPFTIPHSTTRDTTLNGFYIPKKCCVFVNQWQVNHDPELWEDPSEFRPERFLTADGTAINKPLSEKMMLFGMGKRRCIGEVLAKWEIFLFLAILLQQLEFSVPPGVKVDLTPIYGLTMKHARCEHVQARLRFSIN
As to the kind of experiment: Recombinant human P450 isoform inhibition, 1A2. Type of data set: in vitro ADME. Here is the method: as §1

In data set [8] the test system is spinal nerve ligated rats. As to the kind of experiment: Investigation of tolerance development to antiallodynic effect. Conditions: dosing for five days, evaluated days one and five. The class given is in vivo, rat. Here is the method:
Investigation of Tolerance Development
The development of tolerance to the analgesic effect of mu opioid compounds is well known. The development of tolerance to the antiallodynic effect of the Compound 3 was investigated by administering the compound to spinal nerve ligated rats for five days. The antiallodynic effect of the compound was evaluated on days one and five.

The nature of data set [9]: Glucuronidation in human liver microsomes. The class given is in vitro ADME. Conditions: in vitro.
Data set [10] concerns the target T3, Human mu opioid (Homo sapiens, UniProt P35372).
T3 construct: host or cells: CHO cell membranes
As to the kind of experiment: [35S]GTPγS binding assay in human mu opioid-CHO cell membranes. Type of data set: biochemical. Here is the method:
[^35S]GTPγS Binding Assay in Human mu opioid-CHO Cell Membranes
Human mu-CHO cell membranes were purchased from Receptor Biology, Inc. (Baltimore, Md.). About 10 mg/ml of membrane protein was suspended in 10 mM TRIS-HCl, pH 7.2, 2 mM EDTA, 10% sucrose.
Membranes were maintained at 4-8° C. 1 ml of membranes was added into 15 ml cold assay buffer, containing 50 mM HEPES, pH 7.6, 5 mM MgCl2, 100 mM NaCl, 1 mM DTT and 1 mM EDTA. The membrane suspension was homogenized with a Polytron 2 times and centrifuged at 3000 rpm for 10 min. The supernatant was then centrifuged at 18,000 rpm for 20 min. The pellet was resuspended in 10 ml assay buffer with a Polytron.
The pellet membranes (20 μg/ml) were preincubated with Scintillation Proximity Assay beads (SPA, 10 mg/ml) at 25° C. for 45 min in the assay buffer. The SPA beads (5 mg/ml) coupled with membranes (10 μg/ml) were then incubated with 0.5 nM [^35S]GTPγS in the same HEPES buffer containing 50 μM GDP in total volume of 200 μl. A range of concentrations of receptor agonists were used to stimulate [^35S]GTPγS binding. The basal binding was tested in the absence of agonist and non-specific binding was tested in the presence of 10 μM unlabeled GTPγS. Radioactivity was quantified on a Packard TopCount.
Data were Calculated as Follows: % of basal=(stimulated−non-specific)*100/(basal−non specific) % Inhibition=(% Basal of 1 μM DAMGO−% Basal of compound)*100/(% Basal of 1 μM DAMGO−100)
EC50 values were calculated using the Prism program.

T3 sequence (P35372 whole entry): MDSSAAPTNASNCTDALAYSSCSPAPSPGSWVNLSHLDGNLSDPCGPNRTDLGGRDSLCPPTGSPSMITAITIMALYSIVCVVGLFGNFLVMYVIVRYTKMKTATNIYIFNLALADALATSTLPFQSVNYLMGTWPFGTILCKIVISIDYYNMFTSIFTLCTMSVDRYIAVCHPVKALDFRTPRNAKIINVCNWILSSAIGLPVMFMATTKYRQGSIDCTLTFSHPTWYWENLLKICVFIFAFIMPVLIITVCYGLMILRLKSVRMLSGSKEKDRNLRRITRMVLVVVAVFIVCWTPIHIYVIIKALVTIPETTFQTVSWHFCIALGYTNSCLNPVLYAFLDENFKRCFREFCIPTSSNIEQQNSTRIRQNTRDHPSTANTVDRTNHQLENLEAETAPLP
recombinant human P450 2C19, sequence (P33261 whole entry, canonical isoform): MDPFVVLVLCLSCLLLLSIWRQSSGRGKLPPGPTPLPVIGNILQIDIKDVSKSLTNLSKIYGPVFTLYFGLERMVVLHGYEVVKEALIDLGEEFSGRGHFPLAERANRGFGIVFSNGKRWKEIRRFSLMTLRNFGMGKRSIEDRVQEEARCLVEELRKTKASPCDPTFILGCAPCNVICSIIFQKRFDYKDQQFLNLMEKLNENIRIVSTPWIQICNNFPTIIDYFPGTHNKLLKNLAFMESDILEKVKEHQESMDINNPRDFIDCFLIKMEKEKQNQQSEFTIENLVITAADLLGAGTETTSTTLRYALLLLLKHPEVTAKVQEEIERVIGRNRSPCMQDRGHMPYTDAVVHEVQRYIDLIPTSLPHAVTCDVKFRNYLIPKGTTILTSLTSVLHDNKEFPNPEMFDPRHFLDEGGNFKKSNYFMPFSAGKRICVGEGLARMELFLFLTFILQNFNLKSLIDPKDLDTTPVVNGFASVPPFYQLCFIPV
recombinant human P450 2D6, sequence (P10635 whole entry, canonical isoform): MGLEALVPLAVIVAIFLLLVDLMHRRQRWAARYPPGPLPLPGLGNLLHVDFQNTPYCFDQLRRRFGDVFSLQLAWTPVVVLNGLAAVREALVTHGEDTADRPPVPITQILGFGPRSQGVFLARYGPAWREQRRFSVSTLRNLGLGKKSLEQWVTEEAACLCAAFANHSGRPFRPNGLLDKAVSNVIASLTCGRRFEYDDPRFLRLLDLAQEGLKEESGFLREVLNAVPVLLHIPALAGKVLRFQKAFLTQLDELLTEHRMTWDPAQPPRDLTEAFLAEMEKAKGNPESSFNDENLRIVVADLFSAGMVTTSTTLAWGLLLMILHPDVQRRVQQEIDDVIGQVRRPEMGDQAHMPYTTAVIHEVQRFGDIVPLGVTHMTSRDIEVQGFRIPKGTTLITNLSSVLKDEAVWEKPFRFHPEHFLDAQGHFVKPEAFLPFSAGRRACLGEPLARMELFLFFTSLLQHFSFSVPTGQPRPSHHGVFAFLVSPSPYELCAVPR
recombinant human P450 2C9, sequence (P11712 whole entry, canonical isoform): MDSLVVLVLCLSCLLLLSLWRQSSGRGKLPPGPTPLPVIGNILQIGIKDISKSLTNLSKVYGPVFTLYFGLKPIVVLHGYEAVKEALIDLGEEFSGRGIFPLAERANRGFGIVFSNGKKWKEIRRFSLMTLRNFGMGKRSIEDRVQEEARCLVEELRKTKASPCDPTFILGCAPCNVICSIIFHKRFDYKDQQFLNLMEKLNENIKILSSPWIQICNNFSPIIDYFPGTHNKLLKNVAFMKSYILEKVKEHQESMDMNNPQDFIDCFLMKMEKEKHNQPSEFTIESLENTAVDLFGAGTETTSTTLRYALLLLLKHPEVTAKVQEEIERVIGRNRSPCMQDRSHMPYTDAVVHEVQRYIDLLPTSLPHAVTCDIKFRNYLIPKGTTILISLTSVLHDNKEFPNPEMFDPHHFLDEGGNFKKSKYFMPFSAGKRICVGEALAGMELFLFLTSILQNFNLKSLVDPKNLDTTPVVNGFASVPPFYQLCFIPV
T1 sequence (P33535 whole entry): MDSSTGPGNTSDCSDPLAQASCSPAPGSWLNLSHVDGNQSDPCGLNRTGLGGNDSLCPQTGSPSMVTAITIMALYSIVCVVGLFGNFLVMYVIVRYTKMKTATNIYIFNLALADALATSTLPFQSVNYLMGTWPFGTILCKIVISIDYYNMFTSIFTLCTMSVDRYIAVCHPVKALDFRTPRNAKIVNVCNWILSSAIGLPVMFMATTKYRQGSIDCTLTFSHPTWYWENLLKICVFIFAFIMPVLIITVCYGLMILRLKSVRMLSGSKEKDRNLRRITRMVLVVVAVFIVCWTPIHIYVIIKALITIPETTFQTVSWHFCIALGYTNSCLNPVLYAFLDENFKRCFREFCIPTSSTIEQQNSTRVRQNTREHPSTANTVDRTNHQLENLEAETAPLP

One may read the IC50 as the midpoint of a concentration-inhibition curve. The term Ki denotes the equilibrium dissociation constant of an inhibitor or competing ligand from its target. Low readings indicate tighter binding, high ones weaker binding. As a reminder, the half-life is the time needed for the level to fall by half in the phase considered. What is called EC50 is the concentration giving half of the maximal effect. Consider `CN(C)C[C@H]1CCCC[C@]1(O)c1cccc(C(N)=O)c1` (single isomer, unassigned) [Cpd 3], for which the half-inhibitory concentration (IC50) in [1], in data set [2], in [4] and in data set [7] was over 10 µM in each case. Further, the “% remaining after 10 min” value in data set [3] stood at 92.6%; in data set [6] (10 min incubation) it was 101.4%. This compound also yielded an inhibition constant Ki in data set [5] of 0.0155 µM. Besides, in data set [6] (10 min incubation), the “Metabolism in human liver microsomes (result in words)” value is on record as “no metabolism of the compound was observed”. Besides, in data set [6] (incubation times 30, 60 and 90 min, read-out: In vitro half life), the half-life was over 1.67 h. Moreover, in data set [8], the “Development of tolerance to the antiallodynic effect” value is on record as “did not diminish the antiallodynic effect”. In addition, the Glucuronidation result in data set [9] is on record as “no glucuronidation of the compound was detected”. Besides, the concentration for a half-maximal effect (EC50) in [10] is 0.167 µM. Also, the “Mu opioid GTPγS relative efficacy” value in data set [10] is reported as 75%.
